Data reported in patent US20070087064A1, “Composition for preventing and treating climacteric symptoms comprising the extract of sophorae fructus” (DREXGENEBIOTECH CO., LTD., priority 2003, published 2007).

Assays:
TGF-beta = TGF-beta secretion in osteoblasts, ELISA; type: cell-based, human; details: MG-63 cells
Description: (§1) In order to investigate whether the extract of Sophorae Fructus of the present invention could stimulate the secretion of IGF-1 and TGF-beta in osteoblasts, each sample was treated to MG-63 human osteoblast-like cells by the same method as used in Example <4-4>, and then, ELISA and RT-PCR were performed to measure the secretion and the expression of IGF-1 and TGF-beta. The expression levels of IGF-1 and TGF-beta were represented by a comparative rate (%) to that of a control. ELISA was performed by using ELISA kit (Quantikine, R&D system) according to the provided protocol to investigate the secretion of IGF-1 and TGF-beta. Then, optical density was measured by the same method as used in the Example <4-4>. RT-PCR was also performed by the same method as used in the above Example <4-4>. Each primer used for the RT-PCR was presented below.

IGF-1 = IGF-1 secretion in osteoblasts, ELISA; type: cell-based, human; details: MG-63 cells, 10^-4%
Description: as §1

Dpd (deoxypyridinoline) = assay: Dpd concentration in blood plasma of ovari-ectomized rats; type: in vivo, rat
Description: (§2) For removal of ovary, a 12-week old white rat was anesthetized by ether. The rat got a shave on its back by a razor. Oophorectomy was performed after sterilizing the operating area with 70% ethanol. Particularly, skin was cut 2˜3 cm along the spinal column of the abdominal lower-flank region of one side, and then, muscle and peritoneum were incised 1.5 cm to exposure ovary. After ligating oviduct by a silk, the ovary was cut off and peritoneum, muscle and skin were sutured by a silk. The other side ovary was ectomized by the same procedure. Sham operation was performed for a control group, which opened peritoneum but sutured without taking ovary out. A period of recovery was 1 week.
Test animals were classified into three groups; a normal group (non-ovari-ectomized group), a control group 1 (sham-operated group) and an ovari-ectomized group. […]
Dpd concentration in blood plasma obtained above was measured by competitive enzyme immunoassay using a Dpd concentration measuring kit (Pyrilinks-D, Quidel Corporation, USA) in which an anti-Dpd antibody was included. […] After reaction was finished, OD450 was measured. Then, Dpd concentration was calculated by using a calibration curve made to explain the relation between Dpd content and optical density (FIG. 11).
Based on the result of the above Example <5-4>, changes of Dpd concentration after administering each sample for 9 weeks were quantified by the below formula. […]
In order to confim the effects of the extract of Sophorae Fructus of the present invention, Dpd concentrations in groups administered with the extract of Sophorae Fructus of the present invention were calculated by comparing with Dpd concentration in a control group 2 (ovari-ectomized) in which osteoporosis was progressed much. […]

[1] = Calcium concentration in blood plasma of ovari-ectomized rats, OCPC method; type: in vivo, rat
Description: as §2, with “week. Test animals were classified into three groups; a normal group (non-ovari-ectomized group), a control group 1 (sham-operated group) and an ovari-ectomized group. […] Therefore, measuring optical density of the magenta color leads to the quantification of calcium in a reagent. […]” for “week.”

[2] = tested on: MG-63 human osteoblast-like cells; assay: Osteoblast proliferation, MTT method; type: cell-based; details: MG-63 cells, 72 hours
Description: MG-63 human osteoblast-like cells were distributed from Korean Cell Line Bank of Seoul National University College of Medicine, Seoul, Korea, which were sub-cultured for fuirther use. The frozen MG-63 human osteoblast-like cells were melted in a 37° C. water bath for 1 minute, followed by centrifugation with 1300 rpm for 5 minutes to eliminate supernatant. The obtained pellet was re-suspended in DMEM supplemented with 10% FBS, which was, then, distributed in a […] culture flask for further culture. The duration of culture was 2 weeks for cell stability. After confirming under a microscope that a monolayer was stably formed, the cells were used for the experiments. In order to investigate the osteoblast proliferation after the treatment of an extract of Sophorae Fructus, MG-63 human osteoblast-like cells of the above Example <4-1> were treated with the Sophorae Fructus extract powder of Example 1 (R-G), the Sophorae Fructus enzyme extract powder of Example 2 (R-A), and the food composition comprising an extract of Sophorae Fructus of Example 3 (R-P), which were cultured for 3 days. The effects of the above extracts on cell proliferation were measured by MTT method. […] After complete mixing, color changes were checked and OD570 was measured using an ELISA plate reader within an hour.

[3] = Weight changes and weight gaining rate in ovari-ectomized rats; type: in vivo, rat
Description: As the experimental animals, white female SD (Sprague-Dawley) rats (230˜250 g) were purchased from Hallym Research Institute of Experimental animals (Kyunggido, Korea). The rats were raised at 23±1° C., under 40˜60% humidity and 12-hour light and shade cycle. Feed (solid feed, Hallym Research Institute of Experimental animals, Kyunggido, Korea) and water were given freely, but just water was supplied on the day before drawing blood. For removal of ovary, a 12-week old white rat was anesthetized by ether. The rat got a shave on its back by a razor. Oophorectomy was performed after sterilizing the operating area with 70% ethanol. Particularly, skin was cut 2˜3 cm along the spinal column of the abdominal lower-flank region of one side, and then, muscle and peritoneum were incised 1.5 cm to exposure ovary. After ligating oviduct by a silk, the ovary was cut off and peritoneum, muscle and skin were sutured by a silk. The other side ovary was ectomized by the same procedure. Sham operation was performed for a control group, which opened peritoneum but sutured without taking ovary out. A period of recovery was 1 week. Test animals were classified into three groups; a normal group (non-ovari-ectomized group), a control group 1 (sham-operated group) and an ovari-ectomized group. The ovari-ectomized group was sub-divided into a control group 2, which was not administered with a sample, a 17-beta estradiol treating group (E group), an extract of Sophorae Fructus of Example 1 administering group (R-G group), an enzyme extract of Sophorae Fructus of Example 2 administering group (R-A group), a food composition comprising the extract of Sophorae Fructus of Example 3 administering group (R-P group) and a soybean ex-powder administering group (S-S group) by 10 animals each (Table 1). […] Weights of each group of the above Example <5-2> were measured with an electronic scale, from which weight gaining rate per day was calculated by the below formula. […]

What does the source list for C[C@]12CC[C@@H]3c4ccc(O)cc4CC[C@H]3[C@@H]1CC[C@@H]2O [E, 17-beta estradiol]?
TGF-beta concentration (ELISA) (TGF-beta; 10^-4 to 10^-10%): evenly higher TGF-beta concentration; TGF-beta concentration / secretion promoting activity (ELISA) (TGF-beta; minimum concentration 10^-12%): decreased to the similar level to that in a control group; IGF-1 concentration (ELISA), comparison of groups (IGF-1): highest IFG-1 concentration; Dpd concentration in blood plasma after 9 weeks of administration (10th week) (Dpd (deoxypyridinoline); 0.556 g/kg/day oral, E group 1 g/kg/day intraperitoneal): rapid drop of Dpd concentration; decrease rate of Dpd, regarding the amount of decreased Dpd of E group as 100% (Dpd (deoxypyridinoline); 9 weeks administration): 100%; ΔDpd value (Dpd before administration versus after 9-week administration) (Dpd (deoxypyridinoline); negative = decrease of Dpd concentration): negative; calcium concentration in blood plasma, 10 week ([1]; after 9 weeks administration (0.556 g/kg/day oral; estradiol 1 g/kg/day intraperitoneal), mean ± SD): 17.96 ± 1.334; course of calcium concentration in blood plasma after start of administration ([1]; from the first week on): rapid increase of calcium concentration; osteoblast proliferation effect (MTT, OD570) ([2]; 10^-4 to 10^-12%): cell proliferation depended on its concentration; osteoblast proliferation at low concentration versus high concentration ([2]; low concentration 10^-10% (estradiol 10^-10% and 10^-12%)): proliferation decreased; Weight gaining rate (g/day) ([3]; ovari-ectomized SD rats, 12 to 22 weeks old, 0.556 g/kg/day oral, E group 1 g/kg/day intraperitoneal, mean ± SD, * significant p < 0.05): 1.0095 ± 0.1* g/day; Weight (g): Final weight (22 weeks old) ([3]; ovari-ectomized SD rats, after 9 weeks administration (0.556 g/kg/day oral; E group 1 g/kg/day intraperitoneal), mean ± SD): 302.4 ± 29.885 g; weight gaining after removal of ovary ([3]; ovari-ectomized rats, versus rapid weight gaining in control group 2): slow
